According to patent US8877741B2, “Pyrrolidine derivatives, pharmaceutical compositions and uses thereof” (Boehringer Ingelheim International GmbH, priority 2013, dated 2014):
pIC50: −log10 of the molar value.

What follows are molecules tested against human ACC2 (Homo sapiens (Human), UniProt O00763) (assay: ACC2 assay, spectrophotometric 384 well assay (NADH-linked kinetic method)). Details: human ACC2 construct lacking the 128 N-terminal amino acids; coupled lactate dehydrogenase/pyruvate kinase reaction, 340 nm, 25° C.
Format: biochemical
In short: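 N-terminally truncated human ACC2 (lacking 128 residues), expressed in insect cells, was coupled to pyruvate kinase/lactate dehydrogenase, with NADH and acetyl-CoA at 2000 μM and ATP at 500 μM final. The OD340 decrease was followed over 15 min at 25 °C. Slopes were normalised to vehicle and no-acetyl-CoA controls, and IC50 came from four-parameter regression.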

Sequence of human ACC2 (O00763 129-2458): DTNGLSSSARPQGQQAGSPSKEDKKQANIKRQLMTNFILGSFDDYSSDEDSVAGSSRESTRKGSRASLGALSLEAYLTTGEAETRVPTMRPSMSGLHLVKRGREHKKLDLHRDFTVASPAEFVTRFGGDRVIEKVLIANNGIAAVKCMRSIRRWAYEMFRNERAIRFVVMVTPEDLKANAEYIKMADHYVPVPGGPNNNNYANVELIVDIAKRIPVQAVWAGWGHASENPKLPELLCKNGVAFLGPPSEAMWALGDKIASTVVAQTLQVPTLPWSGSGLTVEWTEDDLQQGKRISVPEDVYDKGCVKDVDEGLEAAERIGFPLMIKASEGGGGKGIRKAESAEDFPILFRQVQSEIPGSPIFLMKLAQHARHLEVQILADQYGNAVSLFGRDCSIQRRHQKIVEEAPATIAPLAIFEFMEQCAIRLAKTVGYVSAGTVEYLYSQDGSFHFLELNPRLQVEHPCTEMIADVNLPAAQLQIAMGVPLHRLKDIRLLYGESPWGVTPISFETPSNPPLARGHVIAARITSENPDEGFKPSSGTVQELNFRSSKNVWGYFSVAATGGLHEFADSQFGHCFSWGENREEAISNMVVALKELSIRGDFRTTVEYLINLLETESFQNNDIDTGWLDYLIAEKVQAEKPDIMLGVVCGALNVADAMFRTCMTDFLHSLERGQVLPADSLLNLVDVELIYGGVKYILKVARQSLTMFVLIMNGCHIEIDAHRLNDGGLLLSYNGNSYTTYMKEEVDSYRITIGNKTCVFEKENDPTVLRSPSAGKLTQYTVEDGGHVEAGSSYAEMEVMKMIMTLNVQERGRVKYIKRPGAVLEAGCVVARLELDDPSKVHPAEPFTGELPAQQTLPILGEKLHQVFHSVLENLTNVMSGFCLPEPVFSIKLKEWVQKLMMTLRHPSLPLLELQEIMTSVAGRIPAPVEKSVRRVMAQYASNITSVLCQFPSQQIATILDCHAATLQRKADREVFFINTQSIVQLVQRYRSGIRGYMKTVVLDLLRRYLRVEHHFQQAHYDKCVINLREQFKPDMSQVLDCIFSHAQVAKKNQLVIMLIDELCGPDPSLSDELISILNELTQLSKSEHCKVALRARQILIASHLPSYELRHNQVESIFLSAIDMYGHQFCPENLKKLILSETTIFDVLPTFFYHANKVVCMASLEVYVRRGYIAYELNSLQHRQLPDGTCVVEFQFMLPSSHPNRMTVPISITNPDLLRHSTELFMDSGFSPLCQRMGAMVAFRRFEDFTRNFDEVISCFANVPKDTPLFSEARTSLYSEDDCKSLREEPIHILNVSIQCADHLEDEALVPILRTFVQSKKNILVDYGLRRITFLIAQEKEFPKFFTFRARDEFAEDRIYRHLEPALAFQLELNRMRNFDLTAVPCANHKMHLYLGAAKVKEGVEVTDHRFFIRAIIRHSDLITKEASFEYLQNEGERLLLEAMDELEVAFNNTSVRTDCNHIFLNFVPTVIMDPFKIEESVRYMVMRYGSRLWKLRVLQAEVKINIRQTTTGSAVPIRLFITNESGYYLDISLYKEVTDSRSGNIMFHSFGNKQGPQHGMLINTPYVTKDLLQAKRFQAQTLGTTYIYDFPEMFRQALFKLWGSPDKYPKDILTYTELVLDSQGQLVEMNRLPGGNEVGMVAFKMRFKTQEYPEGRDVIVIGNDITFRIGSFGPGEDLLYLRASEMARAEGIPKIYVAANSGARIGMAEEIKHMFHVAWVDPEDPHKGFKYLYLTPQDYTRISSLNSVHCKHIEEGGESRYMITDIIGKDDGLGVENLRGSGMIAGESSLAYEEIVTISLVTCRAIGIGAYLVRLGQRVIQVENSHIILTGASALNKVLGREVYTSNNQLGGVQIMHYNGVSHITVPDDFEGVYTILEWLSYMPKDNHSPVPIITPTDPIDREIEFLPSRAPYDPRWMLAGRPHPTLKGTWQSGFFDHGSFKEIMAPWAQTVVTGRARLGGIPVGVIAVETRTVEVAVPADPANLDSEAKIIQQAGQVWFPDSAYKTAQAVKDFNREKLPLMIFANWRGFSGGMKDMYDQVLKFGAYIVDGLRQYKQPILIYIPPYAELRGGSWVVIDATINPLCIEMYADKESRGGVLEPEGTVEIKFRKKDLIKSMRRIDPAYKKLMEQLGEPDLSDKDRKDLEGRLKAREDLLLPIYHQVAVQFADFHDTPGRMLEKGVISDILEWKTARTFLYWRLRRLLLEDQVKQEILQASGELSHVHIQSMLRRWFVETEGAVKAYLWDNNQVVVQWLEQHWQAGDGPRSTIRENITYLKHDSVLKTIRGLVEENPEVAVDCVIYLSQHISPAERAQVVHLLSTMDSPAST

| SMILES | pIC50 |
| --- | --- |
| CCOc1ccnc(N2CC[C@@H](Oc3ccc([C@H](C)NC(C)=O)cc3)C2)c1F [Example 9.69] | 6.22 |
| Cc1cc(CC(=O)N[C@@H](C)c2ccc(OC3CCN(c4ccnc(OC(C)C)c4)C3)cc2)on1 (stereo partly drawn) [Example 2.31] | 6.02 |
| COc1c(N2CC[C@@H](Oc3ccc([C@H](C)NC(C)=O)cc3)C2)ccnc1N(C)C [Example 1.137] | 6.20 |
| CC(C)Oc1cc(N2CCC(Oc3ccc([C@H](C)NC(=O)C(C)F)cc3)C2)ccn1 (stereo partly drawn) [Example 2.13] | 6.10 |
| CC(=O)N[C@@H](C)c1ccc(OC2CCN(c3cccc(C)n3)C2)cc1 (stereo partly drawn) [Example 1.18] | 6.78 |
| CC(=O)N[C@@H](C)c1ccc(O[C@@H]2CCN(c3cccc(N4CCCCC4)n3)C2)cc1 [Example 10.4] | 6.58 |
| Cc1ncoc1C(=O)N[C@@H](C)c1ccc(OC2CCN(c3cccc(C(F)(F)F)n3)C2)cc1 (stereo partly drawn) [Example 2.39] | 6.21 |
| CCCOc1cnc(N2CCC(Oc3ccc([C@H](C)NC(C)=O)cc3)C2)c(F)c1 (stereo partly drawn) [Example 1.11] | 6.82 |
| COC(C)(C)COc1nccc(N2CC[C@@H](Oc3ccc([C@H](C)NC(C)=O)cc3)C2)c1F [Example 9.87] | 6.55 |
| CCCOc1cnc(N2CC[C@@H](Oc3ccc([C@H](C)NC(=O)c4sc(NC(C)=O)nc4C)cc3)C2)c(F)c1 [Example 1.48] | 6.45 |
| C[C@H](NC(=O)C1CC1)c1ccc(OC2CCN(c3cccc(C(F)(F)F)n3)C2)cc1 (stereo partly drawn) [Example 2.49] | 6.25 |
| CCOc1nccc(N2CC[C@@H](Oc3ccc([C@H](C)NC(C)=O)cc3)C2)c1F [Example 9.86] | 6.73 |
| COC1CN(c2nccc(N3CC[C@@H](Oc4ccc([C@H](C)NC(C)=O)cc4)C3)c2F)C1 [Example 1.109] | 6.81 |
| CC(=O)N[C@@H](C)c1ccc(O[C@@H]2CCN(c3ccnc(OC4Cc5ccccc5C4)c3)C2)cc1 [Example 9.13] | 6.64 |
| C[C@H](NC(=O)c1cnn(C)c1N)c1ccc(OC2CCN(c3ccnc(OCC4CC4)c3)C2)cc1 (stereo partly drawn) [Example 2.82] | 6.52 |

Second part, the molecule after the results:

| pIC50 | SMILES |
| --- | --- |
| 6.83 | CC(C)Oc1cc(N2CCC(Oc3ccc([C@H](C)NC(=O)C4CC4)cc3)C2)ccn1 (stereo partly drawn) [Example 2.3] |
| 6.96 | CCN(C)C(=O)N[C@@H](C)c1ccc(OC2CCN(c3ccnc(OCC4CC4)c3)C2)cc1 (stereo partly drawn) [Example 3.6] |
| 7.07 | C[C@H](NC(=O)N(C)C)c1ccc(OC2CCN(c3ccnc(OCC4CC4)c3)C2)cc1 (stereo partly drawn) [Example 1.53] |
| 6.93 | CCCNc1nccc(N2CCC(Oc3ccc([C@H](C)NC(=O)NCC)cc3)C2)c1F (stereo partly drawn) [Example 5.7] |
| 6.95 | CC(=O)N[C@@H](C)c1ccc(O[C@@H]2CCN(c3ccnc(N(C)C(C)C)c3F)C2)cc1 [Example 1.111] |
| 6.94 | CC(=O)N[C@@H](C)c1ccc(O[C@@H]2CCN(c3ccnc(N4CCC(C)(O)C4)c3Cl)C2)cc1 (stereo partly drawn) [Example 10.54] |
| 7.16 | C[C@H](NC(=O)c1cnn(C)c1)c1ccc(OC2CCN(c3ccnc(OCC4CC4)c3)C2)cc1 (stereo partly drawn) [Example 2.77] |
| 7.46 | C[C@H](NC(=O)C(F)F)c1ccc(OC2CCN(c3ccc(OCC4CC4(F)F)cn3)C2)cc1 (stereo partly drawn) [Example 2.60] |
| 6.84 | CC(=O)N[C@@H](C)c1ccc(O[C@@H]2CCN(c3nccc(OCC4CC4)c3F)C2)cc1 [Example 9.67] |
| 6.95 | C[C@H](NC(=O)N1CCOCC1)c1ccc(OC2CCN(c3ccc(OCC4CC4(F)F)cn3)C2)cc1 (stereo partly drawn) [Example 3.10] |
| 6.91 | C[C@H](NC(=O)C(C)(C)F)c1ccc(OC2CCN(c3ccnc(OCC4CC4)c3)C2)cc1 (stereo partly drawn) [Example 2.80] |
| 7.02 | CC(=O)N[C@@H](C)c1ccc(OC2CCN(c3cccc(C4CC4)n3)C2)cc1 (stereo partly drawn) [Example 1.38] |
| 7.26 | C[C@H](NC(=O)c1cncs1)c1ccc(O[C@@H]2CCN(c3ccnc(OCC4CC4)c3)C2)cc1 [Example 9.63] |
| 6.94 | CC(=O)N[C@@H](C)c1ccc(O[C@@H]2CCN(c3ccnc(OCC(F)F)c3C)C2)cc1 [Example 9.54] |
| 7.15 | CCC(CC)Oc1cc(N2CC[C@@H](Oc3ccc([C@H](C)NC(C)=O)cc3)C2)ccn1 [Example 9.20] |
